From paper PMC10432564, “Pharmacological perturbation of the phase-separating protein SMNDC1” (Nature Communications, 2023) come the findings set out here.

The target in one test is T1, APEX2-SMNDC1^TD (Homo sapiens, UniProt O75940).
T1 construct: a truncated SMNDC1 consisting of only the Tudor domain and therefore lacking N-terminal and C-terminal regions; expressed in transfected cells
T1 sequence (O75940 72-132 limits assumed): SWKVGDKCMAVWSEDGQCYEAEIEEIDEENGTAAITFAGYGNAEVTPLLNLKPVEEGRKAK
Kind of test: APEX2-SMNDC1^TD proximity labeling, biotin enrichment and mass spectrometry. Type of test: cell-based, mouse. The following applies: compound-treated over DMSO; adjusted p-value<0.05, |log2FC|≥2. From the text: Proximity labeling with APEX2 was done following the described protocol for imaging and proteomic analysis. Cell lines with a stable expression of APEX2-fusion proteins were generated using lentiviral transduction of plasmids generated with Gateway cloning of the respective fusion protein into pLEX305. pLEX_305 was a gift from David Root (Addgene plasmid # 41390; http://n2t.net/addgene:41390; RRID:Addgene_41390). The APEX2 sequence was amplified from APEX2-csGBP which was a gift from Rob Parton (Addgene plasmid # 108874; http://n2t.net/addgene:108874; RRID:Addgene_108874). Briefly, cells were incubated with 0.5 mM biotin-phenol for 30 min, after which 1 mM H2O2 was added for exactly 1 min. Afterwards the labeling reaction was quenched by 3 quick washes with Quenching solution (10 mM sodium ascorbate, 10 mM sodium azide, 5 mM Trolox in PBS). […]
After proximity labeling, cells (~10 Mio. cells, 15 cm dish) were harvested, washed 2x in PBS, snap frozen and stored at −80 °C. […] After quantification of protein amounts by Pierce™ 660 nm Protein Assay, samples were normalized to 500 µg total protein input in a final volume of 300 µl lysis buffer. […]
Following data acquisition, acquired raw data files were processed using the Proteome Discoverer v.2.4.1.15 platform, choosing a TMT16plex quantification method. […]

For a further test, the system named is SMNDC1-GFP αTC1 clones. Put plainly: Live imaging of endogenously tagged SMNDC1-GFP. Type of test: cell-based, mouse. The following applies: 50 µM, 12–16 h. An excerpt: (§1) Cell lines with fluorescent tags in the endogenous intron loci of different genes were generated as described in Serebrenik et al., and Reicher et al.[39],[74]. Cells were transiently transfected using Avalanche-Everyday Transfection Reagent with three plasmids in parallel: (1) the donor plasmid containing the artificial intron with splice acceptor and splice donor site, the fluorescent tag GFP or RFP, and a possible correction for the frame of the targeted intron, (2) a pX330 backbone containing Cas9 and the gRNA against the donor plasmid, and (3) a plasmid expressing the gRNA against the target intron (see table below). After 3–5 days, GFP- and/or RFP-positive cells were sorted on a SONY SH800 Cell Sorter to get fluorescent single cell clones. Clones were validated for the correct integration of the intron-tag via comparison of live cell images to publicly available or in-house IF images, genomic DNA PCR amplification of the respective loci, and western blots with antibodies against the target protein and/or the fluorescent tag.
(§2) Cells were imaged on a PerkinElmer Opera Phenix automated microscope with 500 ms exposure time in either GFP or RFP channel, or on a Zeiss LSM 980 microscope. For condition-independent identification nuclear markers such as Hoechst or DRAQ5^TM were used.
Images were analyzed using the high-content image acquisition and analysis software Harmony® 4.9 developed by PerkinElmer. First, nuclei were identified in the channel of the nuclear marker (DAPI/ Hoechst/ DRAQ5^TM) (with Method C, Common Threshold 0.75, Area > 10 µm^2). After the identification of nuclei, their corresponding cytoplasm was also identified using the respective nucleic acid marker (with Method A, Individual Threshold 0.15). Even though the highest staining of these nuclear markers is obviously detected in the nucleus they still produce a significant staining of the cytoplasm above background. After defining the respective cell areas, mean intensity in the different channels was measured. Finally, spots were identified with the according “Spots” algorithm (with Method A, Relative Spot Intensity > 0.053, Splitting Sensitivity: 1.0).

In test [1] the test system is SRRM2-RFP intron 9-10, αTC1. Put plainly: Live imaging of SRRM2-RFP (nuclear speckles). Type of test: cell-based, mouse.
Description: as §1, §2
Images were analyzed using the high-content image acquisition and analysis software Harmony® 4.9 developed by PerkinElmer. First, nuclei were identified in the channel of the nuclear marker (DAPI/ Hoechst/ DRAQ5^TM) (with Method C, Common Threshold 0.75, Area > 10 µm^2). After the identification of nuclei, their corresponding cytoplasm was also identified using the respective nucleic acid marker (with Method A, Individual Threshold 0.15). Even though the highest staining of these nuclear markers is obviously detected in the nucleus they still produce a significant staining of the cytoplasm above background. After defining the respective cell areas, mean intensity in the different channels was measured. […]

In the next test the target is T2, SMNDC1 Tudor domain (Homo sapiens, UniProt O75940).
T2 sequence (O75940 65-128): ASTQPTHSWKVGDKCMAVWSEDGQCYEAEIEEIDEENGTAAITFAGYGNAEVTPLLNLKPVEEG
Kind of test: AlphaScreen, SMNDC1 Tudor domain / sDMA-peptide interaction.

The test system of another test is SMN-RFP intron 5-6, αTC1. Put plainly: Live imaging of SMN-RFP. The class given is cell-based, mouse. The following applies: 50 µM, 16 h.
Description: as §1, with “Clones were validated for the correct integration of the intron-tag via comparison of live cell images to publicly available or in-house IF images, genomic DNA PCR amplification of the respective loci, and western blots with antibodies against the target protein and/or the fluorescent tag.” left out
Images were analyzed using the high-content image acquisition and analysis software Harmony® 4.9 developed by PerkinElmer. […] Even though the highest staining of these nuclear markers is obviously detected in the nucleus they still produce a significant staining of the cytoplasm above background. After defining the respective cell areas, mean intensity in the different channels was measured. […]

Description for SMNDC1 Tudor domain: To pharmacologically perturb SMNDC1 function, we set out to identify small molecule inhibitors of SMNDC1’s Tudor domain based on perturbing its interaction with a dimethylarginine peptide. To establish an AlphaScreen[50], we coupled donor beads to purified SMNDC1’s (or SMN’s) Tudor domain via a His-Tag and acceptor beads to a biotinylated peptide corresponding to the C-terminal region of the Small nuclear ribonucleoprotein Sm D3 containing four sDMAs (Fig. 4a). […] To identify ideal concentrations for screening, we performed a cross-titration of Tudor domains and binding peptides (Supplementary Fig. 3b).
The AlphaScreen was conducted in 20 mM sodium phosphate pH 6.5, 50 mM NaCl, Tween 0.01%, BSA 0.1%. Protein concentration was optimized for each batch of purified protein. Optimal concentration was chosen at the lowest concentration with ~80% of maximum signal. […] In the first step, 10 µl of the protein solution containing either SMNDC1’s or SMN’s Tudor domain coupled to a 6xHis-Tag were distributed to 384-well plates pre-spotted with compounds and controls, shaken and incubated for 30 min at RT. Afterwards, 10 µl of peptide solution was added to each well and incubated for 1 h at RT. Finally, 5 µl of a solution containing both Streptavidin Donor and nickel chelate (Ni-NTA) Acceptor beads was added and again incubated for 1 h at RT.
Category Parameter Description
Assay Type of assay In vitro AlphaScreen / luminescence proximity
Target Tudor domain of SMNDC1
Primary measurement Decrease in luminescence signal reflecting
disruption of heterodimeric complex between
SMNDC1-Tudor domain and a peptide
corresponding to the C-terminus of Small nuclear
ribonucleoprotein Sm D3 containing 4 sDMAs
Key reagents AlphaScreen no-wash assay kit containing
Streptavidin Donor beads and nickel chelate (Ni-
NTA) AlphaScreen Acceptor beads (PerkinElmer
Assay protocol Described in Methods section
Screen Format PerkinElmer OptiPlate-384 well plate
Concentration(s) tested Typically 10 μM (0.1% DMSO)
Plate controls 32 positive control wells (Mitoxantrone, quencher),
32 negative control wells (DMSO)
Reagent/ compound dispensing system Echo 520 Liquid Handler Multidrop™ Combi
Normalization Raw signal was normalized plate-specifically by
correcting row and column-specific mean signals to
the mean signal of the entire plate, each after
removing the highest and lowest 25% of values. Raw
signal was then converted to percent of control
signal, but linear regression to plate-specific mean
signal of DMSO wells (set to 100 percent of control)
and positive control wells (set to 0% of control), after
outlier removal using a Grubbs test.
unspecific quenchers), Secondary screen (with

One may read the IC50 as the midpoint of a concentration-inhibition curve. A high value points to weaker potency in that assay. Consider `CN(C)S(=O)(=O)c1ccc(C(=O)Nc2nc(-c3ccccn3)cs2)cc1` [compound 1], for which, at APEX2-SMNDC1^TD, the proteins significantly depleted is 0 proteins and the proteins significantly enriched was 5 proteins. Besides, in the test with SMNDC1-GFP αTC1 clones, the “SMNDC1-GFP spots within the nucleus” value was “less spots were detected within the nucleus” and the “SMNDC1 within the nucleus (nuclear SMNDC1-GFP)” value is given as “loss of SMNDC1 within the nucleus”. Also, in test [1], the “SRRM2 and general organization of nuclear speckles” value was “affected”; the SRRM2 spots entry is “appeared to dissolve into the nucleoplasm”; the “overall SRRM2 intensity” value is “slightly reduced”. Also, inhibition against SMNDC1 Tudor domain was half-maximal at 500 nM (IC50). In the test with SMN-RFP intron 5-6, αTC1, the “number of SMN spots in the cytoplasm” value was “increased” and the “overall intensity of SMN” value is reported as “decreased”.
